The record followed here is patent US20250313546A1, “NUCLEIC ACID BINDERS” (UNIVERSITY OF STRATHCLYDE, priority 2022, published 2025).

Values after ≈ are worked out from the molar mass of the structure shown.

Common to all, as to assay: Antibacterial MIC, broth microdilution (CLSI)
Holding throughout (format): cell-based
(In general: Broth dilution looks for growth in wells or tubes with falling amounts of substance.)

The subject of experiment [1] is Enterococcus faecalis (ATCC 51299). Particulars: for MIC80: Enterococcus faecalis, ATCC51299, read-out: MIC80 E. faecalis.
Experiment [2] has as its system Escherichia coli (ATCC 25922). Particulars: for MIC80: Escherichia coli, ATCC25922, read-out: MIC80 E. coli.
Experiment [3] relates to Staphylococcus aureus (ATCC 43300). Particulars: for MIC80: Staphylococcus aureus, ATCC43300, read-out: MIC80 S. aureus.

For `CC/N=C(/CCNC(=O)c1cc(NC(=O)c2cc(NC(=O)c3ccc(/C=C/c4ccc(N(C)C)cc4)nc3)cn2C)cn1C)NCC` [Ia51, 6-((E)-4-(dimethylamino)styryl)-N-(5-((5-(((Z)-3-(ethylamino)-3-(ethylimino)propyl)carbamoyl)-1-methyl-1H-pyrrol-3-yl)carbamoyl)-1-methyl-1H-pyrrol-3-yl)nicotinamide], the MIC80 in experiment [1] is 25 to 100 µM (≈ 15.9 to 63.8 µg/mL); in experiment [2] it was more than 100 µM; in experiment [3], 25 to 100 µM (≈ 15.9 to 63.8 µg/mL).

`[H]/N=C(\CCNC(=O)c1cc(NC(=O)c2cc(NC(=O)c3ccc(C=Cc4ccc(N(C)C)cc4)nc3)cn2C)cn1C)NCCN1CCSCC1` [Ia52, (E)-6-(4-(dimethylamino)styryl)-N-(5-((5-((3-imino-3-((2-thiomorpholinoethyl)amino)propyl)carbamoyl)-1-methyl-1H-pyrrol-3-yl)carbamoyl)-1-methyl-1H-pyrrol-3-yl)nicotinamide]: the MIC80 was more than 100 µM in experiment [1], more than 100 µM in experiment [2] and 5 to 25 µM (≈ 3.55 to 17.8 µg/mL) in experiment [3].

Regarding `C/N=C(\CCNC(=O)c1cc(NC(=O)c2cc(NC(=O)c3ccc(/C=C/c4cccc(OC)c4)cc3)cn2C)cn1C)NC` [Ia53, 4-(4-((E)-3-methoxystyryl)benzamido)-1-methyl-N-(1-methyl-5-(((E)-3-(methylamino)-3-(methylimino)propyl)carbamoyl)-1H-pyrrol-3-yl)-1H-pyrrole-2-carboxamide], the values for the MIC80 in experiment [1], in experiment [2] and in experiment [3] were 5 to 25 µM (≈ 2.98 to 14.9 µg/mL), more than 100 µM and less than 5 µM, respectively.

For the compound `C/N=C(\CCNC(=O)c1cc(NC(=O)c2cc(NC(=O)c3ccc(/C=C/c4ccc(OC)cc4)nc3)cn2C)cn1C)NC` [Ia54, 6-((E)-4-methoxystyryl)-N-(1-methyl-5-((1-methyl-5-(((E)-3-(methylamino)-3-(methylimino)propyl)carbamoyl)-1H-pyrrol-3-yl)carbamoyl)-1H-pyrrol-3-yl)nicotinamide], the MIC80 in experiment [1] is 5 to 25 µM (≈ 2.98 to 14.9 µg/mL); in experiment [2], more than 100 µM; in experiment [3], 5 to 25 µM (≈ 2.98 to 14.9 µg/mL).

With `CNC(=N)CCNC(=O)c1cc(NC(=O)c2cc(NC(=O)c3ccc(/C=C/c4ccc(OC)cc4)nc3)cn2C)cn1C` [Ia55, (E)-N-(5-((5-((3-imino-3-(methylamino)propyl)carbamoyl)-1-methyl-1H-pyrrol-3-yl)carbamoyl)-1-methyl-1H-pyrrol-3-yl)-6-(4-methoxystyryl)nicotinamide], the MIC80 was 5 to 25 µM (≈ 2.91 to 14.6 µg/mL) in experiment [1], more than 100 µM in experiment [2] and 5 to 25 µM (≈ 2.91 to 14.6 µg/mL) in experiment [3].

As for `CNC(=N)CCNC(=O)c1cc(NC(=O)c2cc(NC(=O)c3ccc(/C=C/c4cccc(OC)c4)cc3)cn2C)cn1C` [Ia56, (E)-N-(3-imino-3-(methylamino)propyl)-4-(4-(4-(3-methoxystyryl)benzamido)-1-methyl-1H-pyrrole-2-carboxamido)-1-methyl-1H-pyrrole-2-carboxamide], the MIC80 in experiment [1] is 5 to 25 µM (≈ 2.91 to 14.5 µg/mL); in experiment [2], more than 100 µM; in experiment [3], 5 to 25 µM (≈ 2.91 to 14.5 µg/mL).

As for `Cn1cc(NC(=O)c2cc(NC(=O)c3ccc(/C=C/c4cnc5ccccc5c4)cc3)cn2C)cc1C(=O)NCC/C(=N/CC(F)F)NCC(F)F` [Ia57, N—((Z)-3-((2,2-difluoroethyl)amino)-3-((2,2-difluoroethyl)imino)propyl)-1-methyl-4-(1-methyl-4-(4-((E)-2-(quinolin-3-yl)vinyl)benzamido)-1H-pyrrole-2-carboxamido)-1H-pyrrole-2-carboxamide], the results for the MIC80 in experiment [1], in experiment [2] and in experiment [3] were 5 to 25 µM (≈ 3.58 to 17.9 µg/mL), more than 100 µM and less than 5 µM, respectively.

As for `COCCNC(=N)CCNC(=O)c1cc(NC(=O)c2cc(NC(=O)c3ccc(/C=C/c4cnc5ccccc5c4)cc3)cn2C)cn1C` [Ia58, (E)-N-(3-imino-3-((2-methoxyethyl)amino)propyl)-1-methyl-4-(1-methyl-4-(4-(2-(quinolin-3-yl)vinyl)benzamido)-1H-pyrrole-2-carboxamido)-1H-pyrrole-2-carboxamide], the MIC80 in experiment [1] was 5 to 25 µM (≈ 3.23 to 16.2 µg/mL); in experiment [2] it was more than 100 µM; in experiment [3] it was less than 5 µM.

For `C/N=C(/CCNC(=O)c1cc(NC(=O)c2cc(NC(=O)c3ccc(/C=C/c4ccc(F)c(OC)c4)nc3)cn2C)cn1C)NC` [Ia59, 6-((E)-4-fluoro-3-methoxystyryl)-N-(1-methyl-5-((1-methyl-5-(((Z)-3-(methylamino)-3-(methylimino)propyl)carbamoyl)-1H-pyrrol-3-yl)carbamoyl)-1H-pyrrol-3-yl)nicotinamide], the MIC80 is more than 100 µM in experiment [1], more than 100 µM in experiment [2] and less than 5 µM in experiment [3].

On to `C/N=C(/CCNC(=O)c1cc(NC(=O)c2cc(NC(=O)c3ccc(/C=C/c4cncnc4)cc3)cn2C)cn1C)NC` [Ia60, 1-methyl-4-(1-methyl-4-(4-((E)-2-(pyrimidin-5-yl)vinyl)benzamido)-1H-pyrrole-2-carboxamido)-N—((Z)-3-(methylamino)-3-(methylimino)propyl)-1H-pyrrole-2-carboxamide], for which the MIC80 in experiment [1] was 5 to 25 µM (≈ 2.84 to 14.2 µg/mL); in experiment [2], more than 100 µM; in experiment [3] it was less than 5 µM.

As for `C/N=C(/CCNC(=O)c1cc(NC(=O)c2cc(NC(=O)c3ccc(/C=C/c4cccc(C(F)(F)F)c4)nc3)cn2C)cn1C)NC` [Ia61, N-(1-methyl-5-((1-methyl-5-(((Z)-3-(methylamino)-3-(methylimino)propyl)carbamoyl)-1H-pyrrol-3-yl)carbamoyl)-1H-pyrrol-3-yl)-6-((E)-3-(trifluoromethyl)styryl)nicotinamide], the figures for the MIC80 in experiment [1], in experiment [2] and in experiment [3] were 5 to 25 µM (≈ 3.17 to 15.9 µg/mL), more than 100 µM and 5 to 25 µM (≈ 3.17 to 15.9 µg/mL), respectively.

Regarding `Cn1cc(NC(=O)c2cc(NC(=O)c3ccc(/C=C/c4cnc5ccccc5c4)cc3)cn2C)cc1C(=O)NCCC(=N)NCC(F)F` [Ia62, (E)-N-(3-((2,2-difluoroethyl)amino)-3-iminopropyl)-1-methyl-4-(1-methyl-4-(4-(2-(quinolin-3-yl)vinyl)benzamido)-1H-pyrrole-2-carboxamido)-1H-pyrrole-2-carboxamide], the MIC80 was less than 5 µM in experiment [1], more than 100 µM in experiment [2] and less than 5 µM in experiment [3].

Regarding `CN(C)c1ccc(/C=C/c2ccc(C(=O)Nc3cc(C(=O)Nc4cc(C(=O)NCCC(=N)NCC(F)F)n(C)c4)n(C)c3)cn2)cc1` [Ia63, (E)-N-(5-((5-((3-((2,2-difluoroethyl)amino)-3-iminopropyl)carbamoyl)-1-methyl-1H-pyrrol-3-yl)carbamoyl)-1-methyl-1H-pyrrol-3-yl)-6-(4-(dimethylamino)styryl)nicotinamide], the MIC80 was 25 to 100 µM (≈ 16.1 to 64.6 µg/mL) in experiment [1], more than 100 µM in experiment [2] and less than 5 µM in experiment [3].

For the compound `[H]/N=C(\CCNC(=O)c1cc(NC(=O)c2cc(NC(=O)c3ccc(C=Cc4ccc(N(C)C)cc4)nc3)cn2C)cn1C)N1CCSCC1` [Ib9, (E)-6-(4-(dimethylamino)styryl)-N-(5-((5-((3-imino-3-thiomorpholinopropyl)carbamoyl)-1-methyl-1H-pyrrol-3-yl)carbamoyl)-1-methyl-1H-pyrrol-3-yl)nicotinamide], the MIC80 in experiment [1] is 25 to 100 µM (≈ 16.7 to 66.8 µg/mL); in experiment [2], more than 100 µM; in experiment [3] it was less than 5 µM.

On to `[H]/N=C(\CCNC(=O)c1cc(NC(=O)c2cc(NC(=O)c3ccc(C=Cc4ccc(N(C)C)cc4)nc3)cn2C)cn1C)N1CCN(C)CC1` [Ib10, (E)-6-(4-(dimethylamino)styryl)-N-(5-((5-((3-imino-3-(4-methylpiperazin-1-yl)propyl)carbamoyl)-1-methyl-1H-pyrrol-3-yl)carbamoyl)-1-methyl-1H-pyrrol-3-yl)nicotinamide], for which the MIC80 in experiment [1] was more than 100 µM; in experiment [2], more than 100 µM; in experiment [3], 5 to 25 µM (≈ 3.32 to 16.6 µg/mL).

As to `[H]/N=C(\CCNC(=O)c1cc(NC(=O)c2cc(NC(=O)c3ccc(C=Cc4ccc(N(C)C)cc4)nc3)cn2C)cn1C)N1CCOCC1` [Ib11, (E)-6-(4-(dimethylamino)styryl)-N-(5-((5-((3-imino-3-morpholinopropyl)carbamoyl)-1-methyl-1H-pyrrol-3-yl)carbamoyl)-1-methyl-1H-pyrrol-3-yl)nicotinamide], the MIC80 in experiment [1] is 5 to 25 µM (≈ 3.26 to 16.3 µg/mL); in experiment [2], more than 100 µM; in experiment [3] it was less than 5 µM.

For the compound `COCCOCCOCC[N+](C)(C)CCNC(=O)c1cc(NC(=O)c2cc(NC(=O)c3ccc(/C=C/c4cnc5ccccc5c4)cc3)cn2C)cn1C` [Ic19, (E)-2-(2-(2-methoxyethoxy)ethoxy)-N,N-dimethyl-N-(2-(1-methyl-4-(1-methyl-4-(4-(2-(quinolin-3-yl)vinyl)benzamido)-1H-pyrrole-2-carboxamido)-1H-pyrrole-2-carboxamido)ethyl)ethan-1-aminium], the MIC80 in experiment [1] is 5 to 25 µM; in experiment [2], more than 100 µM; in experiment [3], less than 5 µM.

Take `CCCCCC[N+]1(CCNC(=O)c2cc(NC(=O)c3cc(NC(=O)c4ccc(/C=C/c5cnc6ccccc6c5)cc4)cn3C)cn2C)CCOCC1` [Id1, (E)-4-hexyl-4-(2-(1-methyl-4-(1-methyl-4-(4-(2-(quinolin-3-yl)vinyl)benzamido)-1H-pyrrole-2-carboxamido)-1H-pyrrole-2-carboxamido)ethyl)morpholin-4-ium]: the values for the MIC80 in experiment [1], in experiment [2] and in experiment [3] were more than 100 µM, more than 100 µM and less than 5 µM, respectively.

In the case of `CCCCCCC[N+]1(CCNC(=O)c2cc(NC(=O)c3cc(NC(=O)c4ccc(/C=C/c5cnc6ccccc6c5)cc4)cn3C)cn2C)CCOCC1` [Id2, (E)-4-heptyl-4-(2-(1-methyl-4-(1-methyl-4-(4-(2-(quinolin-3-yl)vinyl)benzamido)-1H-pyrrole-2-carboxamido)-1H-pyrrole-2-carboxamido)ethyl)morpholin-4-ium], the MIC80 in experiment [1] was more than 100 µM; in experiment [2], more than 100 µM; in experiment [3] it was less than 5 µM.

For the compound “N-(5-((5-(((Z)-3-(ethylamino)-3-(ethylimino)propyl)carbamoyl)-1-methyl-1H-pyrrol-3-yl)carbamoyl)-1-methyl-1H-pyrrol-3-yl)-6-((E)-3-methoxystyryl)nicotinamide [Ia26]”, the “MIC80 E. faecalis” value in experiment [1] (MIC at 80% inhibition, ATCC 51299) is on record as “— (— means MIC80 > 100 μM)”. In addition, in experiment [2] (MIC at 80% inhibition, ATCC 25922), the “MIC80 E. coli” value is on record as “— (— means MIC80 > 100 μM)”. Further, the “MIC80 S. aureus” value in experiment [3] (MIC at 80% inhibition, ATCC 43300) is on record as “* (* means 25 μM < MIC80 <= 100 μM)”.

One may read the MIC80 as the lowest concentration that inhibits either 80% of growth or 80% of the strains tested, depending on the study.
